This note sets out measurements from patent US4450269A, “Mono-5-substituted-3-chloro-4H-1,2,6-thiadiazin-4-one antifungal agents” (FMC Corporation, priority 1980, dated 1984).

Common to all, as to assay: Spore germination test
Type in all cases: cell-based

One assay deals with Botrytis cinerea. To be noted: BC, 48 hours. The method, then:
(§1) The test chemical was dissolved or suspended in acetone in an amount such that 0.8 ml of the resulting suspension or solution, mixed with 40 ml water agar produced a water agar solution containing 40, 10, 2.5 and 1 ppm of test chemical. The resulting agar solution, at 50° C., was then divided equally between two sterile petri dishes, each having four separated quadrants, and allowed to solidify. […] quadrants of each dish were flooded with 0.1 ml of a spore suspension in sterile water. Spores of two pathogens, Erysiphe polygoni and Uromyes phaseoli, from infected plant leaves, were brushed on the remaining two quadrants. The tests were then incubated 48 hours, at 24° C.
(§2) Readings were then taken and the percentage of germinated spores calculated. From this percentage, a spore germination rating was assigned as follows: […]

The next assay relates to Alternaria solani. To be noted: AS, 48 hours. The procedure: as §1, §2
Another assay deals with Uromyces phaseoli. To be noted: UP, 48 hours. The method, then: as §1, §2

In the case of “3-chloro-5-(bromophenoxy)-4H-1,2,6-thiadiazin-4-one [Compound 33]”, the “Spore Germination Rating” value was 4 (80-100) with Botrytis cinerea (1.0 ppm); 3 (60-80) in the assay with Botrytis cinerea (2.5 ppm); 0 (0-10) in the assay with Botrytis cinerea (10 ppm); 0 (0-10) in the assay on Botrytis cinerea (40 ppm); 1 (10-40) in the assay with Alternaria solani (1.0 ppm); 0 (0-10) in the assay on Alternaria solani (2.5 ppm). Further, the “Spore Germination Rating” value with Alternaria solani (10 ppm), with Alternaria solani (40 ppm), with Uromyces phaseoli (1.0 ppm), in the assay with Uromyces phaseoli (2.5 ppm), in the assay with Uromyces phaseoli (10 ppm) and in the assay with Uromyces phaseoli (40 ppm) was 0 (0-10) in each case.

Take “3-chloro-5-[methylaminocarbonyloxy)phenoxyl]-4H-1,2,6-thiadiazin-4-one [Compound 36]”: the “Spore Germination Rating” value with Botrytis cinerea (1.0 ppm) is 4 (80-100); in the assay with Botrytis cinerea (2.5 ppm) it was 4 (80-100); with Botrytis cinerea (10 ppm), 4 (80-100); in the assay on Botrytis cinerea (40 ppm) it was 2 (40-60); with Alternaria solani (1.0 ppm), 4 (80-100); with Alternaria solani (2.5 ppm) it was 4 (80-100). Moreover, the “Spore Germination Rating” value in the assay with Alternaria solani (10 ppm) was 2 (40-60); in the assay with Alternaria solani (40 ppm), 0 (0-10); with Uromyces phaseoli (1.0 ppm), 4 (80-100); in the assay with Uromyces phaseoli (2.5 ppm), 2 (40-60); in the assay with Uromyces phaseoli (10 ppm), 0 (0-10); with Uromyces phaseoli (40 ppm), 0 (0-10).

As for `O=c1c(Cl)nsnc1Oc1ccccc1` [Compound 2, 3-chloro-5-phenoxy-4H--1,2,6-thiadiazin-4-one], the “Spore Germination Rating” value with Botrytis cinerea (1.0 ppm) is 4 (80-100); with Botrytis cinerea (2.5 ppm) it was 4 (80-100); with Botrytis cinerea (10 ppm), 0 (0-10); in the assay on Botrytis cinerea (40 ppm), 0 (0-10); in the assay on Alternaria solani (1.0 ppm), 4 (80-100); with Alternaria solani (2.5 ppm), 0 (0-10). In addition, the “Spore Germination Rating” value with Alternaria solani (10 ppm) is on record as 0 (0-10); with Alternaria solani (40 ppm), 0 (0-10); in the assay with Uromyces phaseoli (1.0 ppm), 2 (40-60); in the assay with Uromyces phaseoli (2.5 ppm) it was 2 (40-60); with Uromyces phaseoli (10 ppm), 0 (0-10); in the assay with Uromyces phaseoli (40 ppm), 0 (0-10).

Take `Cc1ccc(Oc2nsnc(Cl)c2=O)cc1` [Compound 3, 3-chloro-5-(4-methylphenoxy)-4H--1,2,6-thiadiazin-4-one]: the “Spore Germination Rating” value is 4 (80-100) in the assay with Botrytis cinerea (1.0 ppm); 4 (80-100) with Botrytis cinerea (2.5 ppm); 0 (0-10) in the assay with Botrytis cinerea (10 ppm); 0 (0-10) in the assay with Botrytis cinerea (40 ppm); 4 (80-100) with Alternaria solani (1.0 ppm); 4 (80-100) with Alternaria solani (2.5 ppm). Besides, the “Spore Germination Rating” value in the assay with Alternaria solani (10 ppm) is 0 (0-10); in the assay on Alternaria solani (40 ppm), 0 (0-10); in the assay on Uromyces phaseoli (1.0 ppm), 4 (80-100); with Uromyces phaseoli (2.5 ppm), 1 (10-40); with Uromyces phaseoli (10 ppm), 0 (0-10); in the assay with Uromyces phaseoli (40 ppm), 0 (0-10).

`CC(C)(C)c1ccc(Oc2nsnc(Cl)c2=O)cc1` [Compound 4, 3-chloro-5-(4-tert-butylphnoxy)-4H--1,2,6-thiadiazin-4-one]: the “Spore Germination Rating” value is given as 4 (80-100) in the assay with Botrytis cinerea (1.0 ppm); 4 (80-100) with Botrytis cinerea (2.5 ppm); 4 (80-100) in the assay with Botrytis cinerea (10 ppm); 2 (40-60) in the assay on Botrytis cinerea (40 ppm); 4 (80-100) with Alternaria solani (1.0 ppm); 4 (80-100) with Alternaria solani (2.5 ppm). Moreover, the “Spore Germination Rating” value in the assay on Alternaria solani (10 ppm) is recorded as 4 (80-100); in the assay on Alternaria solani (40 ppm), 4 (80-100); in the assay on Uromyces phaseoli (1.0 ppm), 4 (80-100); in the assay with Uromyces phaseoli (2.5 ppm) it was 4 (80-100); with Uromyces phaseoli (10 ppm), 0 (0-10); with Uromyces phaseoli (40 ppm) it was 0 (0-10).

Turning to `COc1ccc(Oc2nsnc(Cl)c2=O)cc1` [Compound 5, 3-chloro-5-(4-methoxyphenoxy)4H--1,2,6-thiadiazin-4-one], the “Spore Germination Rating” value is on record as 4 (80-100) in the assay with Botrytis cinerea (1.0 ppm); 4 (80-100) in the assay on Botrytis cinerea (2.5 ppm); 1 (10-40) with Botrytis cinerea (10 ppm); 0 (0-10) in the assay on Botrytis cinerea (40 ppm); 2 (40-60) with Alternaria solani (1.0 ppm); 0 (0-10) with Alternaria solani (2.5 ppm). Further, the “Spore Germination Rating” value was 0 (0-10) with Alternaria solani (10 ppm); 0 (0-10) in the assay with Alternaria solani (40 ppm); 1 (10-40) in the assay with Uromyces phaseoli (1.0 ppm); 1 (10-40) in the assay on Uromyces phaseoli (2.5 ppm); 0 (0-10) in the assay on Uromyces phaseoli (10 ppm); 0 (0-10) in the assay on Uromyces phaseoli (40 ppm).

In the case of `CCCCOc1ccc(Oc2nsnc(Cl)c2=O)cc1` [Compound 6, 3-chloro-5-(4-n-butoxyphenoxy)-4H--1,2,6-thiadiazin-4-one], the “Spore Germination Rating” value with Botrytis cinerea (1.0 ppm), in the assay with Botrytis cinerea (2.5 ppm), in the assay with Botrytis cinerea (10 ppm), in the assay on Botrytis cinerea (40 ppm), in the assay on Alternaria solani (1.0 ppm) and in the assay with Alternaria solani (2.5 ppm) was 4 (80-100) throughout. The “Spore Germination Rating” value is 4 (80-100) in the assay on Alternaria solani (10 ppm); 4 (80-100) with Alternaria solani (40 ppm); 1 (10-40) in the assay on Uromyces phaseoli (1.0 ppm); 0 (0-10) in the assay on Uromyces phaseoli (2.5 ppm); 0 (0-10) in the assay with Uromyces phaseoli (10 ppm); 0 (0-10) in the assay on Uromyces phaseoli (40 ppm).

Take `CCOC(=O)c1ccc(Oc2nsnc(Cl)c2=O)cc1` [Compound 7, 3-chloro-5-(4-ethoxycarbonylphenoxy)-4H--1,2,6-thiadiazin-4-one]: the “Spore Germination Rating” value in the assay with Botrytis cinerea (1.0 ppm) is given as 4 (80-100); with Botrytis cinerea (2.5 ppm) it was 3 (60-80); in the assay with Botrytis cinerea (10 ppm), 2 (40-60); in the assay on Botrytis cinerea (40 ppm) it was 3 (60-80); in the assay with Alternaria solani (1.0 ppm), 4 (80-100); with Alternaria solani (2.5 ppm), 4 (80-100). For the same compound, the “Spore Germination Rating” value in the assay with Alternaria solani (10 ppm) is on record as 4 (80-100); in the assay on Alternaria solani (40 ppm), 4 (80-100); with Uromyces phaseoli (1.0 ppm), 0 (0-10); in the assay with Uromyces phaseoli (2.5 ppm), 0 (0-10); in the assay with Uromyces phaseoli (10 ppm), 0 (0-10); in the assay on Uromyces phaseoli (40 ppm), 0 (0-10).

Regarding `CC(=O)Nc1ccc(Oc2nsnc(Cl)c2=O)cc1` [Compound 8, 5-(4-acetylaminophenoxy)-3-chloro-4H--1,2,6-thiadiazin-4-one], the “Spore Germination Rating” value in the assay on Botrytis cinerea (1.0 ppm) is given as 4 (80-100); with Botrytis cinerea (2.5 ppm), 4 (80-100); in the assay with Botrytis cinerea (10 ppm), 4 (80-100); in the assay with Botrytis cinerea (40 ppm), 4 (80-100); in the assay with Alternaria solani (1.0 ppm) it was 3 (60-80); in the assay on Alternaria solani (2.5 ppm), 2 (40-60). Also, the “Spore Germination Rating” value is on record as 2 (40-60) in the assay on Alternaria solani (10 ppm); 0 (0-10) in the assay on Alternaria solani (40 ppm); 4 (80-100) in the assay on Uromyces phaseoli (1.0 ppm); 4 (80-100) in the assay with Uromyces phaseoli (2.5 ppm); 0 (0-10) in the assay on Uromyces phaseoli (10 ppm); 0 (0-10) with Uromyces phaseoli (40 ppm).

As for `O=c1c(Cl)nsnc1Oc1ccc([N+](=O)[O-])cc1` [Compound 9, 3-chloro-5-(4-nitrophenoxy)-4H--1,2,6-thiadiazin-4-one], the “Spore Germination Rating” value with Botrytis cinerea (1.0 ppm), in the assay on Botrytis cinerea (2.5 ppm), in the assay on Botrytis cinerea (10 ppm), in the assay on Botrytis cinerea (40 ppm), in the assay with Alternaria solani (1.0 ppm) and in the assay with Alternaria solani (2.5 ppm) was 0 (0-10) each time. For the same compound, the “Spore Germination Rating” value in the assay on Alternaria solani (10 ppm), with Alternaria solani (40 ppm), in the assay on Uromyces phaseoli (1.0 ppm), in the assay on Uromyces phaseoli (2.5 ppm), in the assay with Uromyces phaseoli (10 ppm) and in the assay with Uromyces phaseoli (40 ppm) was 0 (0-10) throughout.
